23 molecules from PubChem BioAssay (NCI) can be followed below.

What all share (assay): inhibition of tumour cell growth, NCI panel, 48 h
Test [1] concerns DMS 114 small cell lung.
The test system of test [2] is DMS 273 small cell lung.
Test [3] deals with DLD-1 colon.
For test [4], the system named is KM20L2 colon.
The test system of test [5] is RXF-631 renal.
Test [6] deals with LXFL 529 NSCLC.
Test [7] has as its system SNB-78 CNS.
The test system of test [8] is XF 498 CNS.
Test [9] concerns HOP-18 NSCLC.

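How tested: cells in 96-well plates exposed to compound for 48 hours at five concentrations. TGI marks complete inhibition of growth.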

For the molecule `Oc1ccc(O)c(-n2cccn2)c1`, the TGI was 89.7 µM in test [1]; over 100 µM in [2]; over 100 µM in [3]; over 100 µM in test [4]; over 100 µM in [5]; 38.9 µM in test [6]. In addition, the TGI in test [7] and in test [8] was over 100 µM each time.
On to `O=CC1=CCCN(CCc2c[nH]c3ccccc23)C1`, for which the TGI in test [1] was 146 µM; in test [2], 94.4 µM; in test [3], 111 µM; in test [4], 122 µM; in test [9], 109 µM; in test [5] it was 102 µM. The TGI in test [6] came to 45.8 µM.
For the molecule `CCCCN(C)CC(C(C)=O)C(c1ccccc1)c1c(O)c2ccccc2oc1=O` (stereo not drawn), the TGI in [1], in [2], in test [3], in test [4], in test [9] and in test [6] was over 100 µM throughout. The TGI in test [7] and in test [8] was over 100 µM each time.
`NC1=C(O)/C(=N/NS(=O)(=O)c2ccccc2)C(c2ccc3c(c2)OCO3)O1` (stereo not drawn): the TGI in test [1], in test [2], in [3], in [4], in test [9] and in test [6] was over 100 µM throughout. In [7], this molecule showed a TGI of over 100 µM.
Regarding `CC1=C(O)C(=O)C2C(=O)C1C(C)C2c1ccccc1` (stereo not drawn), the TGI in test [2], in test [3], in test [6], in test [7] and in test [8] was over 100 µM throughout.
As to `CC(C)(C)OC(=O)NC(Cc1ccccc1)C(=S)N1CCCC1` (stereo not drawn), the TGI in test [1], in [2], in [3], in [4], in test [9] and in [5] was over 100 µM throughout. Also, the TGI in test [6], in [7] and in [8] was over 100 µM each time.
Regarding `C=CCC1(CN(C)C)CC/C(=C\c2cc(OC)c(OC)c(OC)c2)C1=O` (stereo not drawn), the TGI was 39.5 µM in test [1]; 38.5 µM in test [3]; 44.4 µM in test [4]; over 100 µM in [9]; 60.9 µM in test [5]; 35.2 µM in test [6]. Also, the TGI in test [7] was over 100 µM.
`Cc1ccc([N+](=O)[O-])cc1NC(=O)C(=O)Cc1nc2ccc(C(=O)c3ccccc3)cc2[nH]c1=O`: the TGI in [1], in test [2], in test [3], in test [4], in [9] and in [5] was over 100 µM throughout. Moreover, the TGI in test [6] and in test [8] was over 100 µM throughout.
Consider `[N-]=[N+]=C1C(=O)C2CC3CC1CC2C3` (stereo not drawn), for which the TGI in test [1], in test [2], in test [3], in test [4], in [9] and in test [5] was over 100 µM each time. The TGI in test [6] and in test [7] was over 100 µM in each case.
With `O=C(NC1CCCCC1)NC12CC3CC(CC(F)(C3)C1)C2`, the TGI in test [1], in test [2], in test [3], in test [4], in test [5] and in test [6] was over 100 µM throughout. Besides, the TGI in [7] and in [8] was over 100 µM each time.
For the molecule `OC(c1cc2ccccc2[nH]1)C(O)(c1cc2ccccc2[nH]1)c1cc2ccccc2[nH]1` (stereo not drawn), the TGI is 29 µM in [1]; 48.8 µM in test [2]; 48 µM in test [3]; over 245 µM in test [4]; 58.3 µM in test [5]; 40.2 µM in test [6].
As to `CSc1nc2nccnc2c(=O)[nH]1`, the TGI in test [1], in test [2], in test [3], in test [4], in test [9] and in test [6] was over 100 µM each time. Moreover, the TGI in [8] was over 100 µM.
As to `COC1CC(O[C@H]2CC[C@@]3(C)C(=CCC4(O)C3CCC35C(=O)OC6(C)O[C@@]43CCC65)C2)OC(C)C1O` (stereo partly drawn), the TGI in [1], in test [2], in test [3], in test [4], in test [9] and in test [6] was over 100 µM throughout. Besides, the TGI in test [7] and in test [8] was over 100 µM each time.
Consider `CON1C(=O)C2(CCCCC2)C(=O)C12C=CC(C)CC2` (stereo not drawn), for which the TGI in test [1], in [2], in [4], in test [5], in [6] and in [7] was over 100 µM in each case. For the same molecule, in test [8], the TGI is over 100 µM.
Consider `O=C(O)C(Cc1ccccc1)N=Cc1nc(-c2ccccc2)oc1O` (stereo not drawn), for which the TGI in [2], in test [3], in test [4], in [5], in test [6] and in test [7] was over 100 µM in each case.
On to `Cc1ccc(NC(=O)C(=O)C2C(=O)NC(=O)NC2=O)c(C)c1`, for which the TGI in test [1], in test [2], in [3], in test [4], in test [9] and in test [5] was over 100 µM throughout. The TGI in [6] and in [7] was over 100 µM throughout.
In the case of `CO/S(=N/S(=O)(=O)c1ccccc1)c1ccccc1[N+](=O)[O-]` (stereo not drawn), the TGI in test [2], in test [3], in [4], in [9], in test [5] and in [6] was over 100 µM each time. For the same molecule, the TGI in test [8] is over 100 µM.
For the molecule `COc1ccc2c(c1)c1ccc3c(c1n2C)C(=O)C=CC3=O`, the TGI was 47.4 µM in test [1]; over 56.3 µM in test [2]; 20.9 µM in test [3]; over 57.3 µM in test [4]; 24.7 µM in test [9]; over 45.5 µM in [5]. The TGI in test [6] turned out to be 30.2 µM; in test [7], 45.5 µM; in test [8] it was 32.1 µM.
For the molecule `O=C(/C=C/c1ccc(-c2ccccc2)cc1)c1ccccc1`, the TGI in [1] is 31.8 µM; in [3], over 100 µM; in test [9], over 100 µM; in [5], 69 µM; in test [6] it was 42.2 µM; in test [7] it was over 100 µM. This molecule gave a TGI in test [8] of 53.1 µM.
For `CC(C)(Oc1ccc2c(=O)cc(-c3ccc(Cl)cc3)oc2c1)C(=O)Nc1c(Cl)cccc1Cl`, the TGI in test [1], in test [2], in test [3], in [4], in test [9] and in test [6] was over 100 µM throughout. Further, the TGI in test [7] and in [8] was over 100 µM each time.
Consider `CC1=C(C(=O)O)N2C(=O)[C@@H](NC(=O)C(c3ccccc3)N3CSC(=S)N(C(C)C)C3)C2SC1` (stereo partly drawn), for which the TGI in test [2], in test [3], in test [4], in test [9], in [6] and in [7] was over 100 µM in each case. This molecule returned a TGI in test [8] of over 100 µM.
As for `CC(=O)NNc1ncc(C(=O)/C=C/c2ccccc2C)s1`, the TGI in test [1], in [2], in test [3], in [4], in test [9] and in test [5] was over 100 µM throughout. In test [7], the TGI was over 100 µM.
In the case of `C/C(=N\N)C(CN1CCOCC1)C(c1ccccc1)c1c(O)c2ccccc2oc1=O` (stereo not drawn), the TGI in [1], in [2], in test [3], in [4], in [6] and in test [7] was over 100 µM each time.
